For one experiment, the system named is STEME. Description: Herbicidal pre-emergence action - Part I. It counts as in vivo, Stellaria media. Particulars: visual grading after ca. 3 weeks vs untreated controls. In outline:
(§1)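 Seeds are sown and covered with sandy loam soil, one monocot and one dicot weed species per pot. The test compound (WP or EC, 0.5% additive, 600 l/ha) is then applied to the soil surface at up to 1280 g/ha. Pots are kept in a greenhouse and injury is rated visually after ca. 3 weeks.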

For a further experiment, the system named is AMARE. Description: Herbicidal pre-emergence action - Part I. To be noted: for pre-emergence activity at 320g/ha against AMARE in % / pre-emergence activity at 1280g/ha against AMARE in %: visual grading after ca. 3 weeks vs untreated controls. It counts as in vivo, Amaranthus retroflexus. In outline: as §1
For experiment [1], the system named is KCHSC. Description: Herbicidal pre-emergence action - Part I. To be noted: 1280 g/ha. The format is in vivo, Kochia scoparia. The procedure, abridged:
as §1

Experiment [2] concerns KCHSC. Description: Herbicidal post-emergence action - Part I. The format is in vivo, Kochia scoparia. To be noted: one-leaf stage, rated visually after about 3 weeks vs untreated controls. In outline: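 Activity was scored visually as % damage (100% = dead, 0% = like untreated) about 3 weeks after treatment. Plants at the one-leaf stage, 2-3 weeks old, were sprayed with WP/EC formulations plus 0.5% additive (600 L/ha water, up to 1280 g/ha). Plants were grown in sandy loam in a greenhouse.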

The next experiment deals with ALOMY. Description: Herbicidal pre-emergence action - Part II. It counts as in vivo, Alopecurus myosuroides. Particulars: visual grading after ca. 3 weeks vs untreated controls. The source says:
(§2) Seeds of mono- and dicotyledonous weed plants and crop plants were sown, in plastic or organic planting pots, in sandy loam and covered with soil. The compounds according to the invention, formulated in the form of wettable powders (WP) or as emulsifiable concentrates (EC), were applied to the surface of the covering soil as aqueous suspension or emulsion, with the addition of 0.5% of an additive, at an application rate of 600 1 of water/ha (converted). Following treatment, the pots were placed in a greenhouse and kept under optimum growth conditions for the test plants. The visual grading of the damage to the test plants was carried out after ca. 3 weeks in comparison to untreated controls (herbicidal effect in percent (%): 100% effect = plants have died off, 0% effect = as control plants). Tables C1 to C12 below show the effects of selected compounds of the general formula (I) according to table 1 on various harmful plants and an application rate corresponding to 320 g/ha or below obtained by the experimental procedure mentioned above. Table C1: pre-emergence activity at 320g/ha against ABUTH in %

The next experiment has as its system SETVI. Description: Herbicidal pre-emergence action - Part II. The format is in vivo, Setaria viridis.
Text: as §2

The test system of a further experiment is TRZAS. Description: Pre-emergence effects on crop plants. It counts as in vivo, Triticum aestivum. To be noted: crop plant. The source says:
Seeds of mono- and dicotyledonous weed plants and crop plants were sown, in plastic or organic planting pots, in sandy loam and covered with soil. The compounds according to the invention, formulated in the form of wettable powders (WP) or as emulsifiable concentrates (EC), were applied to the surface of the covering soil as aqueous suspension or emulsion, with the addition of 0.5% of an additive, at an application rate of 600 1 of water/ha (converted). Following treatment, the pots were placed in a greenhouse and kept under optimum growth conditions for the test plants. The visual grading of the damage to the test plants was carried out after ca. 3 weeks in comparison to untreated controls (herbicidal effect in percent (%): 100% effect = plants have died off, 0% effect = as control plants). Tables D1 to D5 below show the effects of various compounds of the general formula (I) according to Table 1 on various crop plants and an application rate corresponding to 320 g/ha or below obtained by the experimental procedure mentioned above in Biological Examples, Section C. Table […]: pre-emergence activity at 320g/ha against ZEAMX in %

In the next experiment the test system is ZEAMX. Description: Post-emergence effects on crop plants. The format is in vivo, Zea mays. Particulars: crop plant. The procedure, abridged:
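Crop plants were grown in sandy loam in the greenhouse and sprayed at the single-leaf stage, 2–3 weeks after sowing, with WP or EC formulations plus 0.5% additive in 600 l water/ha, at rates of 320 g/ha or below. Injury was scored visually about 3 weeks later as % effect versus untreated controls (100% = plants dead).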

In another experiment the test system is ORYZA. Description: Post-emergence effects on crop plants. It counts as in vivo, Oryza sativa. Particulars: crop plant. The source says: (§3) Seeds of mono- and dicotyledonous weed plants and crop plants were sown, in plastic or organic planting pots, in sandy loam, covered with soil and grown in a greenhouse under controlled growth conditions. 2 to 3 weeks after sowing, the test plants were sprayed in the single-leaf stage. The compounds according to the invention, formulated in form of wettable powders (WP) or as emulsifiable concentrates (EC), were sprayed onto the green plant parts as aqueous suspension or emulsion, with the addition of 0.5% of an additive, at an application rate of 600 1 of water/ha (converted). The test plants were placed in the greenhouse for ca. 3 weeks under optimum growth conditions, and then the effect of the preparations was assessed visually in comparison with untreated controls (herbicidal effect in percent (%): 100% effect = plants have died off, 0% effect = as control plants). Tables F1 to F5 below show the effects of selected compounds of the general formula (I) according to table 1 on various crop plants and an application rate corresponding to 320 g/ha or below obtained by the experimental procedure mentioned above. Table […]: post-emergence activity at 5g/ha against ZEAMX in %

The test system of the next experiment is BRSNW. Description: Post-emergence effects on crop plants. The format is in vivo, Brassica napus. To be noted: crop plant.
Text: as §3

Setting [3] is: Table A10a, visual grading after ca. 3 weeks vs untreated controls.
Where [4] appears, read: 80 g/ha, table titled F4c (BRSNW).

Turning to `Cc1ccsc1C1=NOC2(CCCN(Cc3c(F)cccc3F)C2=O)C1` (racemic) [Compound I-2], the “pre-emergence activity at 80g/ha against STEME in %” value in the experiment with STEME (80 g/ha) amounted to 90%. The “pre-emergence activity at 320g/ha against STEME in %” value in the experiment with STEME stood at 90%. For the same compound, in the experiment on STEME, the “pre-emergence activity at 1280g/ha against STEME in %” value amounted to 90%. In addition, the “pre-emergence activity at 320g/ha against AMARE in %” value with AMARE turned out to be 90%. For the same compound, the “pre-emergence activity at 1280g/ha against AMARE in %” value in the experiment on AMARE was found to be 90%. Besides, the “pre-emergence activity at 1280g/ha against KCHSC in %” value with KCHSC [1] (504 h) and with KCHSC [1] (setting [3]) was 90% in each case. For the same compound, the “post-emergence activity at 320g/ha against KCHSC in %” value in the experiment on KCHSC [2] amounted to 90%. In the experiment on KCHSC [2], the “post-emergence activity at 1280g/ha against KCHSC in %” value came to 90%. Further, the “pre-emergence activity at 320g/ha against ALOMY in %” value with ALOMY was found to be 90%. Also, the “pre-emergence activity against SETVI” value with SETVI (80 g/ha, Table C10b) is listed as 100%; with SETVI (320 g/ha, Table C10a) it was 100%. Also, the “pre-emergence activity against TRZAS” value in the experiment on TRZAS (80 g/ha, Table D2b) was 0%. The “post-emergence activity against ZEAMX” value was determined as 0% with ZEAMX (80 g/ha, Table F1c) and 20% with ZEAMX (320 g/ha, Table F1d). Moreover, the “post-emergence activity against ORYZA” value in the experiment with ORYZA (320 g/ha, Table F3a) was found to be 20%. Moreover, in the experiment with BRSNW (setting [4]), the “post-emergence activity against BRSNW” value is 10%.

`O=C1N(Cc2ccccc2F)CCC12CC(c1c(F)cccc1F)=NO2` (racemic) [Compound I-10]: in the experiment with STEME, the “pre-emergence activity at 320g/ha against STEME in %” value came out at 90% and the “pre-emergence activity at 1280g/ha against STEME in %” value was found to be 90%. In addition, the “pre-emergence activity at 80g/ha against AMARE in %” value with AMARE (80 g/ha, 504 h) came out at 90%. Further, in the experiment with AMARE, the “pre-emergence activity at 320g/ha against AMARE in %” value came out at 90% and the “pre-emergence activity at 1280g/ha against AMARE in %” value was found to be 90%. Further, the “pre-emergence activity at 1280g/ha against KCHSC in %” value with KCHSC [1] (504 h) amounted to 90%. Also, the “pre-emergence activity at 1280g/ha against KCHSC in %” value in the experiment with KCHSC [1] (setting [3]) came out at 90%. Besides, in the experiment with KCHSC [2], the “post-emergence activity at 320g/ha against KCHSC in %” value was 90% and the “post-emergence activity at 1280g/ha against KCHSC in %” value is on record as 90%. The “pre-emergence activity at 320g/ha against ALOMY in %” value in the experiment on ALOMY amounted to 80%. Besides, the “pre-emergence activity against SETVI” value in the experiment with SETVI (320 g/ha, Table C10a) turned out to be 90%. In addition, the “pre-emergence activity against TRZAS” value with TRZAS (80 g/ha, Table D2b) worked out at 0%. Besides, the “post-emergence activity against ZEAMX” value in the experiment with ZEAMX (80 g/ha, Table F1c) turned out to be 0%. Also, in the experiment with ZEAMX (320 g/ha, Table F1d), the “post-emergence activity against ZEAMX” value came to 0%. Moreover, the “post-emergence activity against ORYZA” value in the experiment with ORYZA (320 g/ha, Table F3a) is given as 0%. Also, in the experiment with BRSNW (setting [4]), the “post-emergence activity against BRSNW” value worked out at 0%.

Turning to `Cc1ccsc1C1=NOC2(CCN(Cc3c(F)cccc3F)C2=O)C1` (racemic) [Compound I-16, 7-(2,6-Difluorobenzyl)-3-(3-methyl-2-thienyl)-1-oxa-2,7-diazaspiro[4.4]non-2-en-6-one], the “pre-emergence activity at 1280g/ha against STEME in %” value in the experiment on STEME was 90%. Further, in the experiment on AMARE, the “pre-emergence activity at 320g/ha against AMARE in %” value stood at 90%. The “pre-emergence activity at 1280g/ha against AMARE in %” value with AMARE is listed as 90%. Besides, the “pre-emergence activity at 1280g/ha against KCHSC in %” value with KCHSC [1] (setting [3]) was determined as 90%. Moreover, the “post-emergence activity at 1280g/ha against KCHSC in %” value in the experiment on KCHSC [2] is given as 90%. The “pre-emergence activity at 320g/ha against ALOMY in %” value in the experiment on ALOMY was 80%. In addition, the “pre-emergence activity against SETVI” value with SETVI (320 g/ha, Table C10a) is 90%. In addition, the “pre-emergence activity against TRZAS” value turned out to be 10% with TRZAS (80 g/ha, Table D2b) and 10% with TRZAS (Table D2a, title: 320g/ha, application rate: 80 g/ha). Also, the “post-emergence activity against ZEAMX” value in the experiment with ZEAMX (80 g/ha, Table F1c) is given as 0%; with ZEAMX (320 g/ha, Table F1d), 0%. For the same compound, the “post-emergence activity against ORYZA” value in the experiment on ORYZA (320 g/ha, Table F3a) was 0%; in the experiment on ORYZA (Table F3b, title: 80g/ha, application rate column: 320 g/ha), 0%. The “post-emergence activity against BRSNW” value in the experiment on BRSNW (setting [4]) came to 0%; with BRSNW (table titled F4d (BRSNW), title: 320 g/ha, application rate: 80 g/ha) it was 0%.

The values are drawn from EP4509511A1, “SUBSTITUTED SPIRO-ISOXAZOLINYL LACTAMS, SALTS THEREOF AND THEIR USE AS HERBICIDALLY ACTIVE SUBSTANCES” (Bayer Aktiengesellschaft, priority 2023, dated 2025).
